Assay results from patent US11578041B2, “Crystals of hydroxychloroquine sulfate” (Genovate Biotechnology Co. Ltd., priority 2020, dated 2023).
One block for each compound: values may come before it.

Legend:
[1] = tested on: Rat Pleurisy Macrophage Model; conditions: compared with (R)-(-)-isomer; cited from earlier work
[2] = animal study; cited from earlier work
[3] = Hygroscopicity by dynamic vapor sorption analysis; type: physicochemical; conditions: for RH at which moisture is adsorbed (adsorption curve) / moisture content: 25° C.; for RH at which moisture is adsorbed (adsorption curve): 5% RH increase per step from 0 to 95% RH; for moisture content: at 95% RH; for hygroscopicity compared with the amorphous form: overall conclusion
Protocol: Type A crystal, type B crystal, and an amorphous form of (S)-(+)-hydroxychloroquine sulfate were subjected to dynamic vapor sorption analysis to compare their hygroscopicity using a VTI-SA vapor sorption analyzer from TA Instruments (_New Castle, Del., USA). Each was exposed to a series of relative-humidity (“RH”)-change steps at 25° C., i.e, a 5% RH increase per step from 0 to 95% RH and then a 5% RH decrease per step from 95% to 5% RH.

[4] = Stability of crystal stirred in solvents, solid analysed by XRPD and chiral HPLC; type: physicochemical; conditions: room temperature, 1 day
Protocol: Further, the stability of type A crystal was determined by stirring the crystal (10 mg) in each of nine solvent (0.5 mL) at room temperature for 1 day. For the nine solvents, see Table 6 below. The resulting solid was analyzed by XRPD and chiral HPLC containing a chiral column of DAICEL CHIRALCEL OD-H, 250×4.6 mm, 5 μm.

[5] = Thermal stability by Variable Temperature PXRD under nitrogen; type: physicochemical
Protocol: The stability of type A crystal was also determined by heating the crystal to 30° C., 80° C., 130° C., 160° C., 180° C., and 210° C. under nitrogen using the Variable Temperature PXRD technique. […] Only when the temperature reached 80° C., 160° C. and 210° C., it was converted to type B, C, and D crystals, respectively.

[6] = Solubility test in 16 solvents by stepwise solvent addition; type: physicochemical

Crystal change ([4]; Acetone): Not found
ee of resulting solid ([4]; Acetone): 95.4%
Crystal change ([4]; Acetonitrile): Not found
ee of resulting solid ([4]; Acetonitrile): 95.6%
Crystal change ([4]; Dichloromethane): Not found
ee of resulting solid ([4]; Dichloromethane): 95.8%
Crystal change ([4]; Ethanol): Not found
ee of resulting solid ([4]; Ethanol): 96.7%
Crystal change ([4]; Ethanol/water (9/1)): Not found
ee of resulting solid ([4]; Ethanol/water (9/1), starting ee 96.2%): 99.2%
Crystal change ([4]; Ethyl acetate): Not found
ee of resulting solid ([4]; Ethyl acetate): 88.8%
Crystal change ([4]; Isopropyl acetate): Not found
ee of resulting solid ([4]; Isopropyl acetate): 95.5%
Crystal change ([4]; Methanol): Clear solution
Crystal change ([4]; Tetrahydrofuran): Not found
ee of resulting solid ([4]; Tetrahydrofuran): 95.3%
stability at room temperature ([5]; Variable Temperature PXRD under nitrogen): highly stable
temperature at which converted to type B crystal ([5]; heating under nitrogen): 80 °C
temperature at which converted to type C crystal ([5]; heating under nitrogen): 160 °C
temperature at which converted to type D crystal ([5]; heating under nitrogen): 210 °C
RH at which moisture is adsorbed (adsorption curve) [3]: > 85 % RH
moisture content [3]: 19%
hygroscopicity compared with the amorphous form [3]: less hygroscopic
Compound: CCN(CCO)CCC[C@H](C)Nc1ccnc2cc(Cl)ccc12.O=S(=O)(O)O [type A crystal, (S)-(+)-hydroxychloroquine sulfate]
stability in the test solvents (summary) ([4]; nine solvents): unexpectedly stable in all test solvents except in methanol

RH at which moisture is adsorbed (adsorption curve) [3]: higher than 60 % RH
moisture content [3]: 30%
hygroscopicity compared with the amorphous form [3]: less hygroscopic
Compound: CCN(CCO)CCC[C@H](C)Nc1ccnc2cc(Cl)ccc12.O=S(=O)(O)O [type B crystal, (S)-(+)-hydroxychloroquine sulfate]

Solubility ([6]; 2-Methyl-tetrahydrofuran): >38 mg/mL
Solubility ([6]; Acetone): >38 mg/mL
Solubility ([6]; Acetonitrile): 6.7 to 20 mg/mL
Solubility ([6]; Dichloromethane): >40 mg/mL
Solubility ([6]; Dioxane): >40 mg/mL
Solubility ([6]; Ethanol): >42 mg/mL
Solubility ([6]; Ethyl acetate): 6.7 to 20 mg/mL
Solubility ([6]; Isopropanol): >38 mg/mL
Solubility ([6]; Isopropyl acetate): 6.7 to 20 mg/mL
Solubility ([6]; Methanol): >40 mg/mL
Solubility ([6]; Methyl isobutyl ketone): >42 mg/mL
Solubility ([6]; Methyl tert-butyl ether): <2.1 mg/mL
Solubility ([6]; Tetrahydrofuran): >38 mg/mL
Solubility ([6]; Toluene): <2.0 mg/mL
Solubility ([6]; Water): <1.9 mg/mL
Solubility ([6]; n-Heptane): <2.1 mg/mL
Compound: (±)-hydroxychloroquine [salt-free form of (±)-hydroxychloroquine]

Second part, the compound before the results:

Compound: CCN(CCO)CCC[C@H](C)Nc1ccnc2cc(Cl)ccc12.O=S(=O)(O)O (single isomer, unassigned) [(S)-(+)-isomer]
more efficacious than the (R)-(-)-isomer [1]: 70%
accumulation in ocular tissues compared with the (R)-(-)-isomer [2]: much less

Compound: CCN(CCO)CCC[C@H](C)Nc1ccnc2cc(Cl)ccc12.O=S(=O)(O)O [amorphous form, (S)-(+)-hydroxychloroquine sulfate, reference compound]
RH at which moisture is adsorbed (adsorption curve) [3]: 25 % RH
moisture content [3]: 51%
susceptibility to environment (desorption curve) ([3]; compared with type A and type B crystals): much more susceptible to an environment
